What was measured:
Assay in all cases: radiometric filter-binding kinase assay, Kinase HotSpot
Settings in all cases: compound 0.5 µM; ATP 10 µM
[1] = target: OXSR1 (human) (UniProt O95747)
[2] = target: LIMK1 (human) (UniProt P53667)
[3] = target: MELK (human) (UniProt Q14680)
[4] = target: PKN1 (human) (UniProt Q16512)
[5] = target: MAP3K3 (human) (UniProt Q99759)
[6] = target: RPS6KA4 KD2 (human) (UniProt O75676)
[7] = target: CDC42BPA (human) (UniProt Q5VT25)
[8] = target: PRKX (human) (UniProt P51817)
[9] = target: ACVR1B (human) (UniProt P36896)
ACVR1B (human), sequence (P36896 whole entry, looked up): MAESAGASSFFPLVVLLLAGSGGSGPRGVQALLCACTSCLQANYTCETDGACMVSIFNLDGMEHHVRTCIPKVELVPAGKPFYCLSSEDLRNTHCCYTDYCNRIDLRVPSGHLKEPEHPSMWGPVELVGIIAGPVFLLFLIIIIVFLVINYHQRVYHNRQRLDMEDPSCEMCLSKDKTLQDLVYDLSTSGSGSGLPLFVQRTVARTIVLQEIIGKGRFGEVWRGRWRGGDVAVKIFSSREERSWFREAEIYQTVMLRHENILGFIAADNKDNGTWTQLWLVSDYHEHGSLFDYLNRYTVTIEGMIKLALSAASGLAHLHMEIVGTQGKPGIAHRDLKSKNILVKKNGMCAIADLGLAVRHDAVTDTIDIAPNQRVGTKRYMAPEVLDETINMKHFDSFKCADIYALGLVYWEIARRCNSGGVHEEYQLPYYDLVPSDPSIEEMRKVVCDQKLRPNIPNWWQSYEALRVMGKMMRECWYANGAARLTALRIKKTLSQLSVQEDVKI

[10] = target: PDGFRA (human) (UniProt P16234)
[11] = target: MAP2K2 (human) (UniProt P36507)
MAP2K2 (human), sequence (P36507 whole entry, looked up): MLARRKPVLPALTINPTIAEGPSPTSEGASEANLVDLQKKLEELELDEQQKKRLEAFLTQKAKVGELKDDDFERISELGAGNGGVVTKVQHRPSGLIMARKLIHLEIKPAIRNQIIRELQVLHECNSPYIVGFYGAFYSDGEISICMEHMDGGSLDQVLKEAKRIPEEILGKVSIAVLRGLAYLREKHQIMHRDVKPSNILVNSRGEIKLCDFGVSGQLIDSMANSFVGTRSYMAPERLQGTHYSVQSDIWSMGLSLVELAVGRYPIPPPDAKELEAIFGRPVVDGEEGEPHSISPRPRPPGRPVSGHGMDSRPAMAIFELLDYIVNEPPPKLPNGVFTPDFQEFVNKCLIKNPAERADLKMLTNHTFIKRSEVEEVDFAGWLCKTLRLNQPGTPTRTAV

[12] = target: MATK (human) (UniProt P42679)
[13] = target: RET (human) (UniProt P07949)
[14] = target: ALK (human) (UniProt Q9UM73)
[15] = target: AURKC (human) (UniProt Q9UQB9)
[16] = target: NLK (human) (UniProt Q9UBE8)
[17] = target: SLK (human) (UniProt Q9H2G2)
[18] = target: PHKG1 (human) (UniProt Q16816)
[19] = target: KDR (human) (UniProt P35968)
[20] = target: HIPK1 (human) (UniProt Q86Z02)
[21] = target: STK24 (human) (UniProt Q9Y6E0)
[22] = target: MYO3B (human) (UniProt Q8WXR4)
[23] = target: NEK7 (human) (UniProt Q8TDX7)
[24] = target: VRK1 (human) (UniProt Q99986)
VRK1 (human), sequence (Q99986 whole entry, looked up): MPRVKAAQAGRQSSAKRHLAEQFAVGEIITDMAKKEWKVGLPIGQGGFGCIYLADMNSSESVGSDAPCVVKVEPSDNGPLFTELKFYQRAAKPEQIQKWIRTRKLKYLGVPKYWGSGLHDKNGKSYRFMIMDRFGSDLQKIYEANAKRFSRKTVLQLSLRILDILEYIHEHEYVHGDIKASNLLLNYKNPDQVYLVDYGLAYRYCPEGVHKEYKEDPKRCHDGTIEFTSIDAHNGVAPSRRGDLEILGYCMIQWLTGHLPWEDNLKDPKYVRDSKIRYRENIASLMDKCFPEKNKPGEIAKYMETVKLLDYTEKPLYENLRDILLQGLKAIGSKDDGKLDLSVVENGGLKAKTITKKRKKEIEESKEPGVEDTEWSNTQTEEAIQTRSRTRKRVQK

[25] = target: ERBB4 (human) (UniProt Q15303)
ERBB4 (human), sequence (Q15303 whole entry, looked up): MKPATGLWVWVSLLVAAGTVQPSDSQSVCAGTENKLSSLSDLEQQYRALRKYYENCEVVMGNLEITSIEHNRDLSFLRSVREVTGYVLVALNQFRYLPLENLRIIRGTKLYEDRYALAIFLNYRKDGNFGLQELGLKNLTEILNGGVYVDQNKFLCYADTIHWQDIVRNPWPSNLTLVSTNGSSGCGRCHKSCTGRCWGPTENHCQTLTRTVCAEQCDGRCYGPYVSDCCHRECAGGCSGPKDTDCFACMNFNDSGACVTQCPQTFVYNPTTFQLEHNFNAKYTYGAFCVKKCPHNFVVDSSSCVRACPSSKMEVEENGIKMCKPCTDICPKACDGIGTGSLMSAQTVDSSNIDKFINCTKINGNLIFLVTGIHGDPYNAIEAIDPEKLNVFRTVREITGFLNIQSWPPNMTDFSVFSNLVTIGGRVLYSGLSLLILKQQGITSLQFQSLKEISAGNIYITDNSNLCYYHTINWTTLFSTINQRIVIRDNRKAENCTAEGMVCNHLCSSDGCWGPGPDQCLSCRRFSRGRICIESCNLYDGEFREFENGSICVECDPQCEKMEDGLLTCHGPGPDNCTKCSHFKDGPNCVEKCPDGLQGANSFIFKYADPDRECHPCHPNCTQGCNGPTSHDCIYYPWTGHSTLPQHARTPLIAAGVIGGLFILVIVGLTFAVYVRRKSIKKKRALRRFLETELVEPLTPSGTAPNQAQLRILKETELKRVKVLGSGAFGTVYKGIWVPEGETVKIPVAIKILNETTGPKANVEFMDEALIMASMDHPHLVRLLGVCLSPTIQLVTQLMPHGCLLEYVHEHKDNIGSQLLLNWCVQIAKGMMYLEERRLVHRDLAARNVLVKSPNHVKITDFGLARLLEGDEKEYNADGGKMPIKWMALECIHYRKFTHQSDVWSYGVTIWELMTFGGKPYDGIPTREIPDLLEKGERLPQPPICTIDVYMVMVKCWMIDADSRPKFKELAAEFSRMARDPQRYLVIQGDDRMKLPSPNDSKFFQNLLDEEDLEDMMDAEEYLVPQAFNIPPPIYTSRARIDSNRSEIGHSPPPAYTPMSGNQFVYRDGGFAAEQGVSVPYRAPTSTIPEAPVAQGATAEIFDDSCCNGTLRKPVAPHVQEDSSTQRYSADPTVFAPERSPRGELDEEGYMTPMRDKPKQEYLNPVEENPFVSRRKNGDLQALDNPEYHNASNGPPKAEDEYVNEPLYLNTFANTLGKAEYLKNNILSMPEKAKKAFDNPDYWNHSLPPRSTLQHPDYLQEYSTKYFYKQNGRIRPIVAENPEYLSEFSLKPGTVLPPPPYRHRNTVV

[26] = target: TEC (human) (UniProt P42680)
[27] = target: TNK2 (human) (UniProt Q07912)
[28] = target: FER (human) (UniProt P16591)
FER (human), sequence (P16591 whole entry, looked up): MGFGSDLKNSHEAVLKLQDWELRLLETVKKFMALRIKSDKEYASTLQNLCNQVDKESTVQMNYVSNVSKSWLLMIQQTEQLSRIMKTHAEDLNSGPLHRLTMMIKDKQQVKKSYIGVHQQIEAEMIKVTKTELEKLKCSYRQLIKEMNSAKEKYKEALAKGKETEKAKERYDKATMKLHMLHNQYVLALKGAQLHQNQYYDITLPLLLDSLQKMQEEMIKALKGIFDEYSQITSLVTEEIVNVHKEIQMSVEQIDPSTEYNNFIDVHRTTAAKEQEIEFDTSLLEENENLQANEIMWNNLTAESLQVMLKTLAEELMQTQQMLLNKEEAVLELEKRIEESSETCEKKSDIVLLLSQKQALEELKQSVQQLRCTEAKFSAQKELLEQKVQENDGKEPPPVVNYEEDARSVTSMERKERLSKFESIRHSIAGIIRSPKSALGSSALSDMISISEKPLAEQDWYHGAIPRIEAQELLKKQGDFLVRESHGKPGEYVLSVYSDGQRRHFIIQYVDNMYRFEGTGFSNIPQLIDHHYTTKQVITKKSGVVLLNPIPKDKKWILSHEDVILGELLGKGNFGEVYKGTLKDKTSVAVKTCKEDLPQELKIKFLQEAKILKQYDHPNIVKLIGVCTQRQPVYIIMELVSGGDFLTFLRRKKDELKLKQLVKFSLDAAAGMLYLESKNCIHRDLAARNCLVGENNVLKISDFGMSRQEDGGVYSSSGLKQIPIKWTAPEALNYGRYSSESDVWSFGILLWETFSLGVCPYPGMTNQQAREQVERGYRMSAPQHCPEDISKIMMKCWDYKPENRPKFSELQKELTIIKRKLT

[29] = target: MAP3K14 (human) (UniProt Q99558)
MAP3K14 (human), sequence (Q99558 whole entry, looked up): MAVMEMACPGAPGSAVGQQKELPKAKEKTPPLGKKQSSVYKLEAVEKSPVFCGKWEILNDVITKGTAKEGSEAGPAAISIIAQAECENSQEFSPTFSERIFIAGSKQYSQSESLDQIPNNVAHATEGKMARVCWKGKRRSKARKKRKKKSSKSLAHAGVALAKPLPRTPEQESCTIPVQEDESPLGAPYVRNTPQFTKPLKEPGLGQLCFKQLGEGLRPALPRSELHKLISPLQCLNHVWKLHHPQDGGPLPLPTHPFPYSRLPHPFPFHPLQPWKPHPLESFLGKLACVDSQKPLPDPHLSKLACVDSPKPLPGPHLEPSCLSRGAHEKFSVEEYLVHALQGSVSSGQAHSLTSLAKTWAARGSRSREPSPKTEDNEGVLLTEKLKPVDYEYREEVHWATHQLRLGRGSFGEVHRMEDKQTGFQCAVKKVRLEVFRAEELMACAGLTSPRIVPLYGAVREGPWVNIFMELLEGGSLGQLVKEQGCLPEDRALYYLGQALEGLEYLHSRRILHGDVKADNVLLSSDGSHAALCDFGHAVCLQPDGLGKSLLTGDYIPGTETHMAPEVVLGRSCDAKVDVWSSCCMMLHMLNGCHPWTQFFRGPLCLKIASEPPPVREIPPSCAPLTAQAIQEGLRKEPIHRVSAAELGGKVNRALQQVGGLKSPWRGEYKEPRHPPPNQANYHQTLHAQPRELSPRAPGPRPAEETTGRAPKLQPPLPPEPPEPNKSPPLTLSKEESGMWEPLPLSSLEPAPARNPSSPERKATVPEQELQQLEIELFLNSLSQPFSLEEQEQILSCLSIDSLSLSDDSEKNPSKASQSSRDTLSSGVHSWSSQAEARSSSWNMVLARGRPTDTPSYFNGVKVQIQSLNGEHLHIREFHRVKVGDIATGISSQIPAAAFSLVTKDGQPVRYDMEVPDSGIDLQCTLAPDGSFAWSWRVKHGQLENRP

[30] = target: ACVRL1 (human) (UniProt P37023)
[31] = target: TAOK3 (human) (UniProt Q9H2K8)
[32] = target: FGFR3 (human) (UniProt P22607)
[33] = target: PIM3 (human) (UniProt Q86V86)
[34] = target: RPS6KB2 (human) (UniProt Q9UBS0)
RPS6KB2 (human), sequence (Q9UBS0 whole entry, looked up): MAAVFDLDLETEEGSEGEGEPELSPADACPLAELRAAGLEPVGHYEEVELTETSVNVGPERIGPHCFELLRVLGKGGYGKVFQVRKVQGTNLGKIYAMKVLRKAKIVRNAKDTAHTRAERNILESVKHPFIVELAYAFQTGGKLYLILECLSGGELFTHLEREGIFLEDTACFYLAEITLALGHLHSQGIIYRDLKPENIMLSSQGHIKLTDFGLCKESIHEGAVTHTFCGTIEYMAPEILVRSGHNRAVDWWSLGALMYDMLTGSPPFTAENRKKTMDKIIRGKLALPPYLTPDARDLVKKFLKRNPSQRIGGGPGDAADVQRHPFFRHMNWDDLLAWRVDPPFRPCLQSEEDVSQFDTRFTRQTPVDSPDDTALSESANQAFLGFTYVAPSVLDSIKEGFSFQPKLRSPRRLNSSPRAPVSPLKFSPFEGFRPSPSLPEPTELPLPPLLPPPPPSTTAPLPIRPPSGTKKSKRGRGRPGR

[35] = target: HIPK3 (human) (UniProt Q9H422)
[36] = target: CSF1R (human) (UniProt P07333)
[37] = target: CSNK1A1 (human) (UniProt P48729)
[38] = target: PRKCH (human) (UniProt P24723)
[39] = target: PRKACG (human) (UniProt P22612)
[40] = target: CAMK1D (human) (UniProt Q8IU85)
[41] = target: ULK1 (human) (UniProt O75385)
[42] = target: PTK2 (human) (UniProt Q05397)

Compound: O=C1NC(=O)/C(=C/c2ccc3c(c2)OC(F)(F)O3)S1
- residual activity [1]: 97.1%
- residual activity [2]: 96.4%
- residual activity [3]: 94.4%
- residual activity [4]: 98.5%
- residual activity [5]: 103%
- residual activity [6]: 108%
- residual activity [7]: 98.5%
- residual activity [8]: 101%
- residual activity [9]: 99.4%
- residual activity [10]: 103%
- residual activity [11]: 110%
- residual activity [12]: 93.2%
- residual activity [13]: 102%
- residual activity [14]: 83.4%
- residual activity [15]: 98.1%
- residual activity [16]: 93.8%
- residual activity [17]: 98.3%
- residual activity [18]: 94.2%
- residual activity [19]: 94.6%
- residual activity [20]: 95.9%
- residual activity [21]: 91.9%
- residual activity [22]: 87.9%
- residual activity [23]: 105%
- residual activity [24]: 85.6%
- residual activity [25]: 99.5%
- residual activity [26]: 108%
- residual activity [27]: 93.3%
- residual activity [28]: 97.2%
- residual activity [29]: 106%
- residual activity [30]: 97.1%
- residual activity [31]: 84.7%
- residual activity [32]: 96.4%
- residual activity [33]: 39.8%
- residual activity [34]: 101%
- residual activity [35]: 90.1%
- residual activity [36]: 106%
- residual activity [37]: 88.4%
- residual activity [38]: 92.7%
- residual activity [39]: 102%
- residual activity [40]: 83.2%
- residual activity [41]: 100%
- residual activity [42]: 94.9%

Compound: CCCC(=O)Oc1ccc2[nH]c(C(=O)c3cc4ccccc4[nH]3)cc2c1
- residual activity [1]: 92.4%
- residual activity [2]: 93.9%
- residual activity [3]: 96.4%
- residual activity [4]: 94.6%
- residual activity [5]: 91.9%
- residual activity [6]: 99.1%
- residual activity [7]: 98%
- residual activity [8]: 96.1%
- residual activity [9]: 98.9%
- residual activity [10]: 96.6%
- residual activity [11]: 98.7%
- residual activity [12]: 93.4%
- residual activity [13]: 100%
- residual activity [14]: 83.7%
- residual activity [15]: 94.9%
- residual activity [16]: 106%
- residual activity [17]: 98.9%
- residual activity [18]: 93.7%
- residual activity [19]: 90.4%
- residual activity [20]: 101%
- residual activity [21]: 95.5%
- residual activity [22]: 98.6%
- residual activity [23]: 95.5%
- residual activity [24]: 85.9%
- residual activity [25]: 99.8%
- residual activity [26]: 97.8%
- residual activity [27]: 77.7%
- residual activity [28]: 101%
- residual activity [29]: 109%
- residual activity [30]: 90.9%
- residual activity [31]: 86.7%
- residual activity [32]: 95.2%
- residual activity [33]: 84.5%
- residual activity [34]: 102%
- residual activity [35]: 94.7%
- residual activity [36]: 103%
- residual activity [37]: 94%
- residual activity [38]: 93.6%
- residual activity [39]: 99.8%
- residual activity [40]: 103%
- residual activity [41]: 103%
- residual activity [42]: 94.1%

Compound: CO[C@H]1CC2CC[C@@H](C)[C@@](O)(O2)C(=O)C(=O)N2CCCC[C@H]2C(=O)OC([C@H](C)C[C@@H]2CC[C@@H](O)[C@H](OC)C2)CC(=O)[C@H](C)/C=C(\C)[C@@H](O)[C@@H](OC)C(=O)[C@H](C)C[C@H](C)/C=C/C=C/C=C/1C (stereo partly drawn)
- residual activity [1]: 96.6%
- residual activity [2]: 89.8%
- residual activity [3]: 97.8%
- residual activity [4]: 96.2%
- residual activity [5]: 101%
- residual activity [6]: 91.8%
- residual activity [7]: 95.6%
- residual activity [8]: 95.6%
- residual activity [9]: 97.6%
- residual activity [10]: 95.1%
- residual activity [11]: 103%
- residual activity [12]: 92%
- residual activity [13]: 98.7%
- residual activity [14]: 115%
- residual activity [15]: 95.6%
- residual activity [16]: 97.3%
- residual activity [17]: 98.7%
- residual activity [18]: 93%
- residual activity [19]: 98.1%
- residual activity [20]: 99.1%
- residual activity [21]: 93.5%
- residual activity [22]: 106%
- residual activity [23]: 104%
- residual activity [24]: 108%
- residual activity [25]: 88.7%
- residual activity [26]: 138%
- residual activity [27]: 98.5%
- residual activity [28]: 92%
- residual activity [29]: 105%
- residual activity [30]: 97.9%
- residual activity [31]: 106%
- residual activity [32]: 102%
- residual activity [33]: 106%
- residual activity [34]: 95.4%
- residual activity [35]: 107%
- residual activity [36]: 101%
- residual activity [37]: 99.3%
- residual activity [38]: 104%
- residual activity [39]: 113%
- residual activity [40]: 105%
- residual activity [41]: 87.9%
- residual activity [42]: 103%

Compound: O=C1Nc2ccc(Cl)cc2/C1=C/c1cc(Cl)c(O)c(Cl)c1
- residual activity [1]: 91.6%
- residual activity [2]: 83.7%
- residual activity [3]: 83.6%
- residual activity [4]: 93%
- residual activity [5]: 101%
- residual activity [6]: 98%
- residual activity [7]: 96.1%
- residual activity [8]: 92.1%
- residual activity [9]: 127%
- residual activity [10]: 70.3%
- residual activity [11]: 82%
- residual activity [12]: 82.2%
- residual activity [13]: 80.4%
- residual activity [14]: 65.8%
- residual activity [15]: 78.6%
- residual activity [16]: 38.9%
- residual activity [17]: 95.3%
- residual activity [18]: 86.4%
- residual activity [19]: 86.1%
- residual activity [20]: 102%
- residual activity [21]: 104%
- residual activity [22]: 17.4%
- residual activity [23]: 100%
- residual activity [24]: 80.6%
- residual activity [25]: 94.2%
- residual activity [26]: 109%
- residual activity [27]: 32.4%
- residual activity [28]: 92.1%
- residual activity [29]: 111%
- residual activity [30]: 96.4%
- residual activity [31]: 50.6%
- residual activity [32]: 94%
- residual activity [33]: 14.5%
- residual activity [34]: 98.2%
- residual activity [35]: 91.5%
- residual activity [36]: 77.9%
- residual activity [37]: 92.6%
- residual activity [38]: 90.8%
- residual activity [39]: 99.2%
- residual activity [40]: 104%
- residual activity [41]: 95%
- residual activity [42]: 91.5%

Source: the kinase profiling compilation of Christmann-Franck et al. (2016)
